Patent US8952024B2, “Herbicidal pyrimidone derivatives” (E I du Pont de Nemours and Company, priority 2009, dated 2015)

Legend:
Type in all cases: in vivo
[1] = system: goosegrass (Eleusine indica); assay: Test B pre-/postemergence plant response; conditions: Preemergence, 62 g ai/ha; scale 0 to 100, 0 no effect, 100 complete control
[2] = system: winter barley (Hordeum vulgare); assay: Test B postemergence plant response
Procedure, shortened: (§1)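 Visual ratings from 0 (no effect) to 100 (complete control), made against controls 13–15 days after treatment, kept in a greenhouse. Compounds were applied postemergence to potted plants at the 1- to 4-leaf stage (2–18 cm).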

[3] = system: chickweed (Stellaria media); assay: Test B postemergence plant response
Procedure, shortened: as §1

[4] = system: canarygrass (Phalaris minor); assay: Test B postemergence plant response
Procedure, shortened: as §1

[5] = system: windgrass (Apera spica-venti); assay: Test B postemergence plant response
Procedure, shortened: as §1

[6] = system: sunflower (common oilseed sunflower, Helianthus annuus); assay: Test B pre-/postemergence plant response; conditions: Preemergence
Procedure, shortened: (§2)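 Visual injury, 0–100 scale (100 = complete control), rated against controls after 13 to 15 days in greenhouse. Pre-emergence: seeds in loam/sand soil, treated at planting. Post-emergence: 1- to 4-leaf plants (2 to 18 cm) in peat/vermiculite medium. Compounds formulated in non-phytotoxic solvent with surfactant.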

[7] = system: galium (catchweed bedstraw, Galium aparine); assay: Test B pre-/postemergence plant response; conditions: Preemergence
Procedure, shortened: as §2

[8] = system: nightshade (eastern black nightshade, Solanum ptycanthum); assay: Test B pre-/postemergence plant response; conditions: Preemergence
Procedure, shortened: as §2

[9] = system: velvetleaf (Abutilon theophrasti); assay: Test A pre-/postemergence plant response
Procedure, shortened: (§3)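 Both pre- and postemergence treatments are applied simultaneously, using chemicals formulated in a non-phytotoxic solvent mixture with surfactant. Postemergence plants are 2–10 cm high with one to two leaves. After approximately ten days in a greenhouse, injury is scored visually from 0 (none) to 100 (complete control) relative to untreated plants.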

corn (Zea mays) = assay: Test A pre-/postemergence plant response
Procedure, shortened: as §3

[10] = system: giant foxtail (Setaria faberii); assay: Test A pre-/postemergence plant response
Procedure, shortened: as §3

[11] = system: wheat (Triticum aestivum); assay: Test A pre-/postemergence plant response
Procedure, shortened: as §3

[12] = system: morningglory (Ipomoea spp.); assay: Test A pre-/postemergence plant response
Procedure, shortened: as §3

[13] = system: large crabgrass (Digitaria sanguinalis); assay: Test A pre-/postemergence plant response
Procedure, shortened: as §3

[14] = Postemergence, 31 g ai/ha, scale 0 to 100 (0 no effect, 100 complete control)
[15] = Postemergence, 62 g ai/ha, scale 0 (no effect) to 100 (complete control), 13 to 15 days
[16] = Postemergence, 125 g ai/ha, visual rating after 13 to 15 days, scale 0 (no effect) to 100 (complete control)
[17] = Postemergence, 250 g ai/ha, scale 0 to 100
[18] = 31 g ai/ha, scale 0 to 100 (0 no effect, 100 complete control)
[19] = 62 g ai/ha, scale 0 to 100, 0 no effect, 100 complete control
[20] = Postemergence, 125 g ai/ha, visual injury, 0 to 100 scale (0 no effect, 100 complete control), approx. ten days
[21] = Postemergence, 500 g ai/ha, 0 to 100 scale, 0 = no effect, 100 = complete control, approx. ten days
[22] = Preemergence, 125 g ai/ha, 0 to 100 scale, 0 = no effect, 100 = complete control
[23] = Preemergence, 500 g ai/ha, visual injury, 0 to 100 scale (0 no effect, 100 complete control), approx. ten days
[24] = 31 g ai/ha, postemergence, scale 0 to 100, 0 is no effect, 100 is complete control
[25] = Postemergence, 250 g ai/ha, scale 0 to 100 (0 no effect, 100 complete control)
[26] = 125 g ai/ha, scale 0 to 100, 0 no effect, 100 complete control

SMILES: Cc1ccc(C)c(-n2c(-c3ccccc3)ncc(C(=O)C3=C(O)CCCC3=O)c2=O)c1 [Compound 29]
- Plant response rating, Goosegrass [1]: 100
- Plant response rating, Barley [2, 14]: 0
- Plant response rating, Barley [2, 15]: 0
- Plant response rating, Barley [2, 16]: 0
- Barley plant response rating [2, 17]: 0
- Plant response rating, Chickweed [3, 14]: 50
- Plant response rating, Chickweed [3, 15]: 50
- Plant response rating, Chickweed [3, 16]: 50
- Chickweed plant response rating [3, 17]: 85
- Plant response rating, Canarygrass [4, 14]: 10
- Plant response rating, Canarygrass [4, 15]: 20
- Plant response rating, Canarygrass [4, 16]: 40
- Canarygrass plant response rating [4, 17]: 40
- Plant response rating, Windgrass [5, 15]: 10
- Plant response rating, Windgrass [5, 16]: 30
- Windgrass plant response rating [5, 17]: 50
- Plant response rating, Sunflower ([6]; 250 g ai/ha, 0 to 100 scale): 100
- Plant response rating, Sunflower [6, 18]: 75
- Plant response rating, Sunflower [6, 19]: 85
- Sunflower plant response rating ([6]; 125 g ai/ha, 0 to 100 scale): 90
- Plant response rating, Galium ([7]; 250 g ai/ha, 0 to 100 scale): 100
- Plant response rating, Galium [7, 18]: 50
- Plant response rating, Galium [7, 19]: 80
- Galium plant response rating ([7]; 125 g ai/ha, 0 to 100 scale): 98
- Plant response rating, Nightshade ([8]; 250 g ai/ha, 0 to 100 scale): 100
- Plant response rating, Nightshade [8, 18]: 90
- Plant response rating, Nightshade [8, 19]: 90
- Nightshade plant response rating ([8]; 125 g ai/ha, 0 to 100 scale): 100
- Velvetleaf plant response rating [9, 20]: 100
- Plant response rating, Velvetleaf [9, 21]: 100
- Plant response rating, Velvetleaf [9, 22]: 20
- Plant response rating, Velvetleaf [9, 23]: 100
- Corn plant response rating (corn (Zea mays); [20]): 0
- Plant response rating, Corn (corn (Zea mays); [21]): 10
- Plant response rating, Corn (corn (Zea mays); [22]): 0
- Plant response rating, Corn (corn (Zea mays); [23]): 0
- Foxtail, Giant plant response rating [10, 20]: 70
- Plant response rating, Foxtail, Giant [10, 21]: 90
- Plant response rating, Foxtail, Giant [10, 22]: 30
- Plant response rating, Foxtail, Giant [10, 23]: 100
- Wheat plant response rating [11, 20]: 0
- Plant response rating, Wheat [11, 21]: 0
- Plant response rating, Wheat [11, 22]: 0
- Plant response rating, Wheat [11, 23]: 0
- Morningglory plant response rating [12, 20]: 60
- Plant response rating, Morningglory [12, 21]: 90
- Plant response rating, Morningglory [12, 22]: 40
- Plant response rating, Morningglory [12, 23]: 80
- Crabgrass, Large plant response rating [13, 20]: 70
- Plant response rating, Crabgrass, Large [13, 21]: 90
- Plant response rating, Crabgrass, Large [13, 22]: 20
- Plant response rating, Crabgrass, Large [13, 23]: 100

SMILES: CCCCc1ncc(C(=O)C2=C(O)CCCC2=O)c(=O)n1-c1ccccc1C [Compound 62]
- Plant response rating, Barley [2, 24]: 0
- Plant response rating, Barley [2, 15]: 5
- Plant response rating, Barley [2, 16]: 5
- Plant response rating, Barley [2, 25]: 30
- Plant response rating, Chickweed [3, 24]: 70
- Plant response rating, Chickweed [3, 15]: 70
- Plant response rating, Chickweed [3, 16]: 75
- Plant response rating, Chickweed [3, 25]: 80
- Plant response rating, Canarygrass [4, 24]: 0
- Plant response rating, Canarygrass [4, 15]: 0
- Plant response rating, Canarygrass [4, 16]: 0
- Plant response rating, Canarygrass [4, 25]: 5
- Plant response rating, Windgrass [5, 24]: 30
- Plant response rating, Windgrass [5, 15]: 35
- Plant response rating, Windgrass [5, 16]: 35
- Plant response rating, Windgrass [5, 25]: 50
- Plant response rating, Sunflower [6, 18]: 0
- Plant response rating, Sunflower [6, 19]: 10
- Plant response rating, Sunflower [6, 26]: 10
- Plant response rating, Galium ([7]; 250 g ai/ha, 0 to 100 scale): 0
- Plant response rating, Galium [7, 18]: 0
- Plant response rating, Galium [7, 19]: 0
- Plant response rating, Galium [7, 26]: 0
- Plant response rating, Nightshade [8, 18]: 10
- Plant response rating, Nightshade [8, 19]: 95
- Plant response rating, Nightshade [8, 26]: 98
- Velvetleaf plant response rating [9, 20]: 100
- Plant response rating, Velvetleaf [9, 21]: 100
- Plant response rating, Velvetleaf [9, 22]: 70
- Plant response rating, Velvetleaf [9, 23]: 90
- Corn plant response rating (corn (Zea mays); [20]): 30
- Plant response rating, Corn (corn (Zea mays); [21]): 70
- Plant response rating, Corn (corn (Zea mays); [22]): 0
- Plant response rating, Corn (corn (Zea mays); [23]): 20
- Foxtail, Giant plant response rating [10, 20]: 70
- Plant response rating, Foxtail, Giant [10, 21]: 90
- Plant response rating, Foxtail, Giant [10, 22]: 60
- Plant response rating, Foxtail, Giant [10, 23]: 70
- Wheat plant response rating [11, 20]: 0
- Plant response rating, Wheat [11, 21]: 20
- Plant response rating, Wheat [11, 22]: 0
- Plant response rating, Wheat [11, 23]: 10
- Morningglory plant response rating [12, 20]: 100
- Plant response rating, Morningglory [12, 21]: 100
- Plant response rating, Morningglory [12, 22]: 90
- Plant response rating, Morningglory [12, 23]: 100
- Crabgrass, Large plant response rating [13, 20]: 70
- Plant response rating, Crabgrass, Large [13, 21]: 90
- Plant response rating, Crabgrass, Large [13, 22]: 60
- Plant response rating, Crabgrass, Large [13, 23]: 90
